Reference: publication PMC7221803, “Structure–Activity Relationships and Biological Evaluation of 7-Substituted Harmine Analogs for Human β-Cell Proliferation” (Molecules, 2020)
“And” between values parts separate entries of the source, which are not always exact repeats. Equal values may be shown once. Read-outs that look alike come from different tables or passages of the source.

Columns and labels:
DYRK1A = DYRK1A (Homo sapiens, UniProt Q13627); experiment: FRET-based LanthaScreen Eu Kinase Binding Assay for DYRK1A; details: for inhibition at 0.3 µM: read-out: % DYRK1A Inhibition 300 nM; for inhibition at 1 µM: read-out: % DYRK1A Inhibition 1000 nM; for IC50: 10 point LanthaScreen Eu Kinase Binding Assay; for fold less potent DYRK1A inhibition as compared to harmine: relative to harmine (27 nM); for DYRK1A inhibition (result in words): in vitro at the concentrations tested (1000 nM and 300 nM)
Description: Compounds were tested for DYRK1A binding activity by a commercial kinase profiling services, Life Technologies which uses the FRET-based LanthaScreen® Eu Kinase Binding Assay. Compounds were screened for DYRK1A activity at concentrations of 1000 nM and 300 nM in duplicates. The IC50 was determined by 10 point LanthaScreen® Eu Kinase Binding Assay in duplicates.

human β-cells = experiment: Human β-cell proliferation assay (Ki67-insulin co-immunolabeling, dispersed human islets); assay type: cell-based; details: for human β-cell proliferation at screening concentration: 10 μM, Ki-67-insulin co-immunolabeling after 4 days, n = 3
Description: Human pancreatic islets were obtained from the NIH/NIDDK-supported Integrated Islet Distribution Program (IIDP) Duarte, CA, USA (https://iidp.coh.org) and studied using protocols that have been published in detail. Briefly, islets were first dispersed with Accutase (Sigma, St. Louis, MO, USA) onto coverslips, and treated with vehicle (0.1% DMSO) or with harmine-related compounds in RPMI1640 complete medium for 96 h. Then the cells were then, fixed with formaldehyde and immunolabeled for insulin and Ki67 as described below. Total insulin-positive cells and cells double positive Ki67 and insulin positive cells were imaged and counted. Islets from 3–5 different adult donors were tested as described in Figure 4. At least 1000 β-cells were counted for human islet donor.

[1] = compound at 1000 nM, duplicates
[2] = 1-2b at 30 μM vs harmine at 10 μM

SMILES | inhibition at 0.3 µM (DYRK1A; compound at 300 nM, duplicates) [%] | inhibition at 1 µM (DYRK1A; [1]) [%] | other results
CC(=O)NCCCOc1ccc2c(c1)[nH]c1c(C)nccc12 [1-6b, 3-(7-Oxy-1-methyl-9-H-b-carbolin) -2-acetyl-propylamine] | 22 | 49 | 
Cc1nccc2c1[nH]c1cc(OCCCCC(N)=O)ccc12 [1-3d, 5-(7-Oxy-1-methyl-9-H-b-carbolin)pentanamide] | 67 | 88 | 
CC(=O)NCCCCOc1ccc2c(c1)[nH]c1c(C)nccc12 [1-6c, 4-(7-Oxy-1-methyl-9-H-b-carbolin) -2-acetyl-butylamine] | 45 | 69 | 
Cc1nccc2c1[nH]c1cc(OCCC(N)=O)ccc12 [1-3b, 3-(7-Oxy-1-methyl-9-H-b-carbolin)propionamide] |  |  | IC50 (DYRK1A; duplicates): 91 nM; fold less potent DYRK1A inhibition as compared to harmine (DYRK1A): ~ 3 fold; human β-cell proliferation at screening concentration (human β-cells): exhibit human β-cell proliferation
COC(=O)COc1ccc2c(c1)[nH]c1c(C)nccc12 [1-2a, 2-(7-Oxy-1-methyl-9-H-b-carbolin)acetic acid methyl ester] |  |  | IC50 (DYRK1A; duplicates): 194 ± 11.7 nM; inhibition at 0.3 µM (DYRK1A): 58%; inhibition at 1 µM (DYRK1A): 85%
CC(=O)NCCOc1ccc2c(c1)[nH]c1c(C)nccc12 [1-6a, 2-(7-Oxy-1-methyl-9-H-b-carbolin)-2-acetyl-ethylamine] | 24 | 49 | 
Cc1nccc2c1[nH]c1cc(N)ccc12 [1-9, 7-Amino-1-methyl-9H-b-carboline] |  |  | DYRK1A inhibition (result in words) (DYRK1A): completely lost its DYRK1A inhibitory activity; inhibition at 0.3 µM (DYRK1A): 8%; inhibition at 1 µM (DYRK1A): 21%
Cc1nccc2c1[nH]c1cc(OCCCNC(=O)OC(C)(C)C)ccc12 [1-2l, 3-(7-Oxy-1-methyl-9-H-b-carbolin)propyl tert-butyl carbamate] | 24 | 50 | 
CCOCCOc1ccc2c(c1)[nH]c1c(C)nccc12 [1-2p, 3-(7-Oxy-1-methyl-9-H-b-carbolin)ethoxyethyl] | 19 | 37 | DYRK1A inhibition (result in words) (DYRK1A): not favorable for the DYRK1A inhibition
Cc1nccc2c1[nH]c1cc(OCCCC(=O)O)ccc12 [1-4c, 4-(7-Oxy-1-methyl-9-H-b-carbolin)butnoic acid] | 6 | 19 | 
COC(=O)CCCOc1ccc2c(c1)[nH]c1c(C)nccc12 [1-2c, 4-(7-Oxy-1-methyl-9-H-b-carbolin)butnoic acid methyl ester] | 47 | 78 | 
CC(=O)NCCOCCOc1ccc2c(c1)[nH]c1c(C)nccc12 [1-6d, 2-((7-Oxy-1-methyl-9-H-b-carbolin)ethoxy)-2-acetyl-ethylamine] | 17 | 41 | 
Cc1nccc2c1[nH]c1cc(OCCNC(=O)OC(C)(C)C)ccc12 [1-2k, 2-(7-Oxy-1-methyl-9-H-b-carbolin)ethyl tert-butyl carbamate] | 35 | 61 | 
COC(=O)CCOc1ccc2c(c1)[nH]c1c(C)nccc12 [1-2b, 3-(7-Oxy-1-methyl-9-H-b-carbolin)propionic acid methyl ester] |  |  | IC50 (DYRK1A; duplicates): 89 nM and 89.7 nM; fold less potent DYRK1A inhibition as compared to harmine (DYRK1A): 4 fold and ~ 3 fold; human β-cell proliferation at screening concentration (human β-cells): exhibit human β-cell proliferation; human β-cell proliferation relative to harmine (in words) (human β-cells; [2]): half that of harmine; maximal human β-cell proliferation as % that of harmine (human β-cells; [2]): 66%; human β-cell proliferation dose-response (human β-cells; dose-response up to 30 μM, n = 3 human islet donors for each dose): induced proliferation in a dose-dependent manner
Cc1nccc2c1[nH]c1cc(OC(=O)NC(C)C)ccc12 [1-12, 1-Methyl-9H-pyrido[3,4-b]indol-7-yl isopropylcarbamate] |  |  | DYRK1A inhibition (result in words) (DYRK1A): moderately active; inhibition at 0.3 µM (DYRK1A): 42%; inhibition at 1 µM (DYRK1A): 69%
Cc1nccc2c1[nH]c1cc(OCCCCCC(=O)O)ccc12 [1-4e, 6-(7-Oxy-1-methyl-9-H-b-carbolin)hexanoic acid] | 43 | 74 | 

SMILES | inhibition at 0.3 µM (DYRK1A; compound at 300 nM, duplicates) [%] | inhibition at 1 µM (DYRK1A; [1]) [%] | other results
Cc1nccc2c1[nH]c1cc(OCC(N)=O)ccc12 [1-3a, 2-(7-Oxy-1-methyl-9-H-b-carbolin)acetamide] | 10 | 30 | 
Cc1nccc2c1[nH]c1cc(NC(=O)c3ccccc3)ccc12 [1-11, 7-Benzamide-1-methyl-9H-b-carboline] | 48 | 77 | IC50 (DYRK1A; duplicates): 389 ± 32.6 nM; DYRK1A inhibition (result in words) (DYRK1A): partially recovered
Cc1nccc2c1[nH]c1cc(OCCCCCC(N)=O)ccc12 [1-3e, 6-(7-Oxy-1-methyl-9-H-b-carbolin)hexanamide] | 39 | 67 | 
Cc1nccc2c1[nH]c1cc(OCCCCN)ccc12 [1-5c, 4-(7-Oxy-1-methyl-9-H-b-carbolin)butylamine hydrochloric acid] | 15 | 42 | 
COCCOc1ccc2c(c1)[nH]c1c(C)nccc12 [1-2o, 2-(7-oxy-1-methyl-9-H-b-carbolin)methoxyethyl] |  |  | DYRK1A inhibition (result in words) (DYRK1A): not favorable for the DYRK1A inhibition; inhibition at 0.3 µM (DYRK1A): 23%; inhibition at 1 µM (DYRK1A): 48%
Cc1nccc2c1[nH]c1cc(OCCCCC(=O)O)ccc12 [1-4d, 5-(7-Oxy-1-methyl-9-H-b-carbolin)pentanoic acid] | 20 | 44 | 
Cc1nccc2c1[nH]c1cc(OCCN)ccc12 [1-5a, 2-(7-Oxy-1-methyl-9-H-b-carbolin)ethylamine hydrochloric acid] | 12 | 25 | 
COC(=O)CCCCCOc1ccc2c(c1)[nH]c1c(C)nccc12 [1-2e, 6-(7-Oxy-1-methyl-9-H-b-carbolin)hexanoic acid methyl ester] |  |  | IC50 (DYRK1A; duplicates): 134 ± 4.55 nM; inhibition at 0.3 µM (DYRK1A): 56%; inhibition at 1 µM (DYRK1A): 81%
Cc1nccc2c1[nH]c1cc(OCCOCCNC(=O)OC(C)(C)C)ccc12 [1-2n, 2-((7-Oxy-1-methyl-9-H-b-carbolin)ethoxy)ethyl tert-butyl carbamate] | 27 | 48 | 
Cc1nccc2c1[nH]c1cc(OCCCCNC(=O)OC(C)(C)C)ccc12 [1-2m, 4-(7-Oxy-1-methyl-9-H-b-carbolin)butyl tert-butyl carbamate] | 31 | 58 | 
Cc1nccc2c1[nH]c1cc(OCCOCCN)ccc12 [1-5d, 2-((7-Oxy-1-methyl-9-H-b-carbolin)ethoxy)ethylamine hydrochloric acid] | 15 | 32 | 
Cc1nccc2c1[nH]c1cc(OCCC(=O)O)ccc12 [1-4b, 3-(7-Oxy-1-methyl-9-H-b-carbolin)propionic acid] |  |  | IC50 (DYRK1A; duplicates): 1810 ± 101 nM
COC(=O)CCCCOc1ccc2c(c1)[nH]c1c(C)nccc12 [1-2d, 5-(7-Oxy-1-methyl-9-H-b-carbolin)pentanoic acid methyl ester] | 35 | 67 | 
Cc1nccc2c1[nH]c1cc(OCC(=O)O)ccc12 [1-4a, 2-(7-Oxy-1-methyl-9-H-b-carbolin)acetic acid] |  |  | inhibition at 0.3 µM (DYRK1A): 3%; inhibition at 1 µM (DYRK1A): 6%
Cc1nccc2c1[nH]c1cc(OCCCN)ccc12 [1-5b, 3-(7-Oxy-1-methyl-9-H-b-carbolin)propylamine hydrochloric acid] |  |  | inhibition at 0.3 µM (DYRK1A): 8%; inhibition at 1 µM (DYRK1A): 28%
Cc1nccc2c1[nH]c1cc(OCCCC(N)=O)ccc12 [1-3c, 4-(7-Oxy-1-methyl-9-H-b-carbolin)butanamide] | 32 | 58 | 
